Results from US6586613B1, “Substituted tetrahydronaphthaline and analogous compounds” (Bayer Aktiengellschaft, priority 1997, dated 2003).

Legend:
[1] = molecular target: T1, cholesterol ester transfer protein (CETP) (Homo sapiens, UniProt P11597); test: CETP inhibition test (transfer of 3H-cholesterol ester from HDL to biotinylated LDL, SPA); type: biochemical; settings: CETP partially purified from human plasma; 37° C., 18 h
T1 construct: CETP is obtained in partially purified form from human plasma by differential centrifugation and column chromatography; from tissue; host or cells: human plasma
T1 sequence (P11597 18-493): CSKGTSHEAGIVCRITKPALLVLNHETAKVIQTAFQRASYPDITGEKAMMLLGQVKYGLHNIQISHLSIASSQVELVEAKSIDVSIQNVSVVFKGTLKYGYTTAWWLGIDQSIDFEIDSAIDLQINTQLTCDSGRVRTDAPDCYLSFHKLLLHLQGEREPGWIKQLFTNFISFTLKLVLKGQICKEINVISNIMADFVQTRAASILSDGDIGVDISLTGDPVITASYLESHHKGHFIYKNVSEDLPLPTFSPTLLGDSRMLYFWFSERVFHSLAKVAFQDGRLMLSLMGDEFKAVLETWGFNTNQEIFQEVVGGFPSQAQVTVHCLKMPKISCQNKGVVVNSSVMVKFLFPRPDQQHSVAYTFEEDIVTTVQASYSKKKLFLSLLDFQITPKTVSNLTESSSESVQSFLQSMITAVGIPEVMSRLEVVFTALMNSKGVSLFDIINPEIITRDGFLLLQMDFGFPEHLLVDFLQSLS
Description: CETP is obtained in partially purified form from human plasma by differential centrifugation and column chromatography and used for the test. For this purpose, human plasma is adjusted to a density of 1.21 g per ml using NaBr and centrifuged at 50,000 rpm at 4° C. for 18 h. The bottom fraction (d>1.21 g/ml) is applied to a Sephadex®Phenyl-Sepharose 4B (Pharmacia) column, washed with […]/0.001 M TrisHCl pH 7.4 and subsequently eluted using dist. water. The CETP-active fractions are pooled, dialysed against 50 mM Na-acetate pH 4.5 and applied to a CM-Sepharose® (Pharmacia) column. Elution is subsequently carried out using a linear gradient (0-1 M NaCl). The pooled CETP fractions are dialysed against 10 mM TrisHCl pH 7.4 and subsequently purified further by chromatography over a Mono Q® column (Pharmacia).
Preparation of Radioactively Labelled HDL
50 ml of fresh human EDTA plasma is adjusted to a density of 1.12 using NaBr and centrifuged at 4° C. in a Ty 65 rotor at 50,000 rpm for 18 h. The upper phase is used to obtain cold LDL. […]
To assess the CETP activity, the transfer of ^3H-cholesterol ester from human HD-lipoproteins to biotinylated LD-lipoproteins is measured.
The reaction is terminated by addition of Streptavidin-SPA® beads (Amersham) and the transferred radioactivity is directly measured in a liquid scintillation counter. […]

CETP activity = test: Ex vivo activity: CETP activity in serum of treated hamsters; settings: Syrian gold hamsters; for ED50 for ex vivo activity: CETP activity in serum; for % inhibition at 3 mg/kg: ex vivo CETP activity in serum
Description: Ex vivo Activity of the Compounds According to the Invention
Syrian gold hamsters, which have been bred in our own laboratory, are anaesthetized after 24 hours of fasting (0.8 mg/kg of atropine, 0.8 mg/kg of Ketavet® s.c., 30′ later 50 mg/kg of nembutal i.p.). The jugular vein is subsequently exposed and cannulated. The test substance is dissolved in a suitable solvent (usually adalate placebo solution: 60 g of glycerol, 100 ml of H2O, ad 1000 ml PEG-400) and administered to the animals via a PE catheter, which is introduced into the jugular vein. The same volume of solvent without test substance is administered to the control animals. The vein is subsequently tied off and the wound is closed.
The test substances can also be administered p.o. by dissolving the substances in DMSO and suspending them in 0.5% tylose and administering them using a pharyngeal tube. Identical volumes of solvent without test substance are administered to the control animals.
At different intervals—up to 24 hours after the administration—blood samples are taken from the animals by puncture of the retro-orbital venous plexus (approximately 250 μl). Coagulation is completed by incubation at 4° C. overnight, and the samples are subsequently centrifuged at 6000×g for 10 minutes. The CETP activity is determined in the resulting serum using the modified CETP test. The transfer of ^3H-cholesterol ester from HD-lipoproteins to biotinylated LD-lipoproteins is measured as described above for the CETP test.
The reaction is terminated by addition of Streptavidin-SPA® beads (Amersham), and the transferred radioactivity is directly determined in a liquid scintillation counter.
The test protocol is carried out as described under “CETP test”. However, to test the sera, 10 μl of CETP are replaced by 10 μl of the appropriate serum samples. Corresponding incubations of sera of untreated animals serve as controls.
The activity that is transferred in the control experiments using control sera is classified as 100% transfer. The substance concentration at which this transfer is reduced by half is stated as the ED50 value.

Syrian gold hamsters = test: In vivo activity: HDL increase after oral administration to hamsters; settings: perorally
Description: In vivo Activity of the Compounds According to the Invention
In experiments for assessing the oral activity on lipoproteins and triglycerides, test substance, dissolved in DMSO and suspended in 0.5% tylose, is administered perorally by means of a pharyngeal tube to Syrian gold hamsters which have been bred in our own laboratory. To determine the CETP activity, blood samples (approximately 250 μl) are taken by retro-orbital puncture prior to the start of the experiment. The test substances are subsequently administered perorally using a pharyngeal tube. Identical volumes of solvent without test substance are administered to the control animals. […]
Coagulation is completed by incubation at 4° C. overnight, and the samples are subsequently centrifuged at 6000×g for 10 minutes. The content of cholesterol and triglycerides in the resulting serum is assessed using modified commercially available enzyme tests (cholesterol enzymatic 14366 Merck, triglycerides 14364 Merck). […]
100 μl of serum dilution and 100 μl of test substance are transferred into 96-well-plates and incubated at room temperature for 10 minutes. The optical density is subsequently determined at a wavelength of 492 nm using an automatic plate reader.
The triglyceride and cholesterol concentrations of the samples are determined with the aid of a standard curve measured in parallel. […]

transgenic hCETP mice = test: In vivo activity in transgenic hCETP mice (lipoproteins and triglycerides in serum); settings: 30 ppm via the feed, after one week
Description: In vivo Activity in Transgenic hCETP Mice
The substances to be tested were administered to transgenic mice, which were bred in our own laboratory (Dinchuck, Hart, Gonzalez, Karmann, Schmidt, Wirak; BBA (1995), 1295, 301), via the feed. Prior to the beginning of the experiment, blood samples were taken retro-orbitally from the mice to determine cholesterol and triglycerides in the serum. The serum was obtained as described above for hamsters by incubation at 4° C. overnight and subsequent centrifugation at 6000×g. After one week, blood samples were again taken from the mice to determine lipoproteins and triglycerides. The change of the measured parameters are expressed as a change in percent based on the initial value.

| Structure (SMILES) | IC50 [1] [nM] | ED50 for ex vivo activity (CETP activity) [mg/kg] | % inhibition at 3 mg/kg (CETP activity) [%] | % HDL increase (Syrian gold hamsters; dose 2 × 1 mg/kg) | % HDL increase (Syrian gold hamsters; dose 2 × 0.3 mg/kg) | HDL, change in percent based on the initial value (transgenic hCETP mice) | LDL, change in percent based on the initial value (transgenic hCETP mice) [%] | Triglycerides, change in percent based on the initial value (transgenic hCETP mice) [%] |
| --- | --- | --- | --- | --- | --- | --- | --- | --- |
| CC(C)c1cc2c(c(-c3ccc(F)cc3)c1[C@@H](F)c1ccc(C(F)(F)F)cc1)[C@@H](O)CC(C)(C)C2 [Example 25] | 3 | <0.3 | 83.1 | +15% | – | – | – | – |
| O[C@H]1CC2(CCC2)Cc2cc(C3CCCC3)c([C@@H](F)c3ccc(C(F)(F)F)cc3)c(-c3ccc(F)cc3)c21 [Example 31] | 2.7 | <0.3 | 72.3 | – | +19% | – | – | – |
| CC(C)c1cc2c(c(-c3ccc(F)cc3)c1[C@@H](F)c1ccc(C(F)(F)F)cc1)[C@@H](O)CC1(CCC1)C2 [Example 15, (S)-8-Hydroxy-1-(4-fluorophenyl)-2-[(S)-fluoro-(4-trifluoromethyl-phenyl)-methyl]-3-isopropyl-6-spiro-cyclobutyl-5,6,7,8-tetrahydronaphthalene] | – | – | – | – | – | +60% | −18 | −15 |
